5 compounds from publication PMC3506176 (Nature chemical biology, 2010) can be followed below.

Experiment [1] deals with T1, oxytocin receptor (Homo sapiens, UniProt P30559).
T1 sequence (P30559 1-389): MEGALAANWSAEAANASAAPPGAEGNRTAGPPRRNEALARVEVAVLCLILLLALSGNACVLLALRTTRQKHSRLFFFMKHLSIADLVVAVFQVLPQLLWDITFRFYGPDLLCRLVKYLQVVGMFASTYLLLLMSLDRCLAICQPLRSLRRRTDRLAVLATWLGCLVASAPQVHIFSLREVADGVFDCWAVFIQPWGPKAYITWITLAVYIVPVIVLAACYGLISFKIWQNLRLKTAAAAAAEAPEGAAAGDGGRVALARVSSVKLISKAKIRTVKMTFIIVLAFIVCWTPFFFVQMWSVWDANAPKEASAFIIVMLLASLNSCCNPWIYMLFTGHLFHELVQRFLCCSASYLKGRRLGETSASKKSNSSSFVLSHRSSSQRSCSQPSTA
Description: Binding affinity of ligands for the oxytocin receptor.

The target in another experiment is dopamine D2 receptors (Homo sapiens, UniProt P14416). Type of experiment: binding. The settings on record: read-out: IC50, inhibition of the FRET signal by increasing concentrations of NAPS; Cos7 cells transfected with D2 receptors; NAPS(Lumi4-Tb) (8) 1 nM and NAPS(d1) (9) 5 nM.
The target in experiment [2] is T2, oxytocin receptor (Rattus norvegicus, UniProt P70536).
T2 sequence (P70536 1-388): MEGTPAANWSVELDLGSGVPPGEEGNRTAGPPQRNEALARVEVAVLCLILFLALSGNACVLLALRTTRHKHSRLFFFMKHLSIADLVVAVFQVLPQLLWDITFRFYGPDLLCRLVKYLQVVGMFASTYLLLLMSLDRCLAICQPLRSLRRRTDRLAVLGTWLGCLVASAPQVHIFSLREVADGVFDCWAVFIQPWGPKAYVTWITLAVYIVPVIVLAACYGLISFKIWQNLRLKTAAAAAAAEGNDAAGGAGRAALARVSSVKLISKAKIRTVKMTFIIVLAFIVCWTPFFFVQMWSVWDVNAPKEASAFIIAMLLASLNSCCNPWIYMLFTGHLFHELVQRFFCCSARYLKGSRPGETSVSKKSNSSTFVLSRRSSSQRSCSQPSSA
Type of experiment: binding. The settings on record: mammary gland patches; excess of oxytocin 1 μM.

dopamine D2 receptors, sequence (P14416 whole entry): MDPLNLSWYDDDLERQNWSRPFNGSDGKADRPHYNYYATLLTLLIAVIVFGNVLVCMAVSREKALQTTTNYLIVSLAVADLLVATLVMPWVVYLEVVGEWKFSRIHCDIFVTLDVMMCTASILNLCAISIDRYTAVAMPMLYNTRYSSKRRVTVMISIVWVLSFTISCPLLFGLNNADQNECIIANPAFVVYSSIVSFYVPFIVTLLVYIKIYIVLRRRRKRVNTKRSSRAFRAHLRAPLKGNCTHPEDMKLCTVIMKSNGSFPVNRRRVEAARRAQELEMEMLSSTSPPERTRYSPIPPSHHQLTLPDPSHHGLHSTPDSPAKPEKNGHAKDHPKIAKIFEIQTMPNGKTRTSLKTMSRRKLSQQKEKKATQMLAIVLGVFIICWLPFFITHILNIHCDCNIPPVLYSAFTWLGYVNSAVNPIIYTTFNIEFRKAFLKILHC

Consider “HO-[Thr[4],Orn[8](Eu-PBBP)]VT [compound 5]”, for which the “Affinity for the oxytocin receptor (in words)” value (“Affinity” below) at oxytocin receptor [1] is listed as “high affinities”. Consider `Nc1ccc(CCN2CN(c3ccccc3)C3(CCN(CCCC(=O)c4ccc(F)cc4)CC3)C2=O)cc1` [NAPS, N-(p-aminophenethyl)spiperone], for which the IC50 on dopamine D2 receptors stood at 1.9 nM. On to “d(CH2)5[DTyr(Et)2,Ile4,Eda(Alexa-647)9]VP [compound 14]”, for which, at oxytocin receptor [1], the “Affinity” value is given as “poor affinity”. As for “HO-[Thr[4],Orn[8](Alexa-647)]VT [compound 6]”, the “Affinity” value at oxytocin receptor [1] was “high affinities”. Turning to glucagon-like peptide 1 [GLP1], the “Affinity” value with oxytocin receptor [1] is “no affinity”. Besides, in the experiment with oxytocin receptor [2], the “Effect on the FRET signal between donor and acceptor antagonists” value is given as “not affected”.
